{
  "source": "ChEMBL document CHEMBL5518193",
  "about": "“Discovery of N-alkyl-N-benzyl thiazoles as novel TRPC antagonists for the treatment of glioblastoma multiforme” (Eur J Med Chem, 2024)",
  "key": {"[1]": {"assay": "AUC (0 to infinity) in BALB/c mouse at 25 mg/kg, ip administered as liposome encapsulated form and measured upto 24 hrs by LC-MS/MS analysis", "type": "ADME, organism-based", "settings": "in vivo"}, "U-87 MG": {"tested_on": "U-87 MG", "assay": "Antitumor activity against human U87 cells xenografted in BALB/c nude mouse assessed as tumor growth inhibition at 25 mg/kg/day administered as liposome encapsulated form for 15 days and measured every 3 days by vernier caliper", "type": "functional, U-87MG ATCC", "settings": "360 h, time 15 day, read-out: TGI"}, "[2]": {"biological_target": "T1, Short transient receptor potential channel 4 (Mus musculus, UniProt Q9QUQ5)", "T1 sequence (Q9QUQ5 whole entry)": "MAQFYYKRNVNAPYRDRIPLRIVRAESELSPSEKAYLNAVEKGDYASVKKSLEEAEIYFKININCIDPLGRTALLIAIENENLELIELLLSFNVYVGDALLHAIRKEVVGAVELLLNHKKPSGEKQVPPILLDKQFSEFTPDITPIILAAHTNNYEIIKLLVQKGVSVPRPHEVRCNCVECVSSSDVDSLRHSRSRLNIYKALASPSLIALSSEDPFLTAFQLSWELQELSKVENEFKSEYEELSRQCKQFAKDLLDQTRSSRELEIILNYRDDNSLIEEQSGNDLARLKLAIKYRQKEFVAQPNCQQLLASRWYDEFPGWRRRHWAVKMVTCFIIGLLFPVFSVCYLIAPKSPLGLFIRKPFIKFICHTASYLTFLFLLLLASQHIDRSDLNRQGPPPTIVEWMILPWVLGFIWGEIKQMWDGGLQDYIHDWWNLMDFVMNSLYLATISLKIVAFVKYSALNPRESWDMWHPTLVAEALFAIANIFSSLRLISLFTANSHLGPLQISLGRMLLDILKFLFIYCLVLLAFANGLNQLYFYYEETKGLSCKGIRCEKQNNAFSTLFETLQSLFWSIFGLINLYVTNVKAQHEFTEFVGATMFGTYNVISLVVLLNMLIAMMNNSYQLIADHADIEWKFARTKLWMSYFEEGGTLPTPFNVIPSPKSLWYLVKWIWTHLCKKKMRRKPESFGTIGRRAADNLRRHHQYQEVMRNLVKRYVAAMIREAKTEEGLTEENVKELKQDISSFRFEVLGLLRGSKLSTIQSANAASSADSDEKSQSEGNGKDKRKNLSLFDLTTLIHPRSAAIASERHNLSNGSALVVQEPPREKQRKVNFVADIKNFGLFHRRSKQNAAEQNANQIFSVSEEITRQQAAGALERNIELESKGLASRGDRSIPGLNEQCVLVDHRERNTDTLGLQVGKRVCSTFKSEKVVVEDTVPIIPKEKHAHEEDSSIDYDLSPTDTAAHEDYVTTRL", "assay": "Antagonist activity at mouse TRPC4 stably expressed in HEK293 cells inhibition of calcium influx by calcium fluorescence assay", "type": "cell-based"}, "[3]": {"assay": "Selectivity index, ratio of IC50 for human A549 cells to IC50 for human U87 cells", "type": "functional"}, "[4]": {"biological_target": "T2, Short transient receptor potential channel 3 (Homo sapiens, UniProt Q13507)", "T2 sequence (Q13507 whole entry)": "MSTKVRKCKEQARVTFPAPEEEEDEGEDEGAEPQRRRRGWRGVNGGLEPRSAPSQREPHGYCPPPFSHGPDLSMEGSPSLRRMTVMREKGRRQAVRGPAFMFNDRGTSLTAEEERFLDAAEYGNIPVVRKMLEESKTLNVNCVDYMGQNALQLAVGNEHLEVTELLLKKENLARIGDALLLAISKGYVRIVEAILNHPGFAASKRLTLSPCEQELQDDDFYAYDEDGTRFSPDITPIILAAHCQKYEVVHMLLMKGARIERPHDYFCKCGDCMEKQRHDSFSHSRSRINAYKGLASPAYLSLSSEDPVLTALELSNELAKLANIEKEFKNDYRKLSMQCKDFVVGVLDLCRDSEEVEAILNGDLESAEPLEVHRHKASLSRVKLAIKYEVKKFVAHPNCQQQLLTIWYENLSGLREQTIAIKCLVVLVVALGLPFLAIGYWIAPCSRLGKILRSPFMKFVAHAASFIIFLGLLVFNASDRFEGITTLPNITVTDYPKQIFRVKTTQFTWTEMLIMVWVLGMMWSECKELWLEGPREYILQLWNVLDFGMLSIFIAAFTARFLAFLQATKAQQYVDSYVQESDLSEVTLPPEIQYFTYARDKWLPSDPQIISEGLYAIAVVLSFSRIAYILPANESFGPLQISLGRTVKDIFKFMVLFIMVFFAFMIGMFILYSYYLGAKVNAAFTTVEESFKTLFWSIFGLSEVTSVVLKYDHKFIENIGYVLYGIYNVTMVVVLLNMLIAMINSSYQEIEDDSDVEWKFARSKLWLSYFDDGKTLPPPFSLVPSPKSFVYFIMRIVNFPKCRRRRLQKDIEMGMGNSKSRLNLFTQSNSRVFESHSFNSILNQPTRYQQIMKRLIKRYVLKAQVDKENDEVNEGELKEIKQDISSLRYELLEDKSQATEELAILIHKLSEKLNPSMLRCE", "assay": "Antagonist activity at human TRPC3 stably expressed in HEK293 cells inhibition of calcium influx by calcium fluorescence assay", "type": "cell-based"}},
  "data": [
    {"smiles": "NCCN(Cc1ccc2ccccc2c1)c1nc(C(=O)Nc2ccc(O)cc2)cs1", "values": [
      {"measurement": "AUC(0-inf)", "setting": "[1]", "value": 6920, "unit": "ng·h/mL"},
      {"measurement": "inhibition in vivo at 25 mg/kg/day", "setting": "U-87 MG", "value": 45.8, "unit": "%"},
      {"measurement": "IC50", "setting": "[2]", "value": 12.2, "unit": "µM"},
      {"measurement": "Ratio IC50", "setting": "[3]", "value": 2},
      {"measurement": "IC50", "setting": "[4]", "value": 2400, "unit": "nM"}
    ]}
  ]
}
